The results in this text go back to US20200276217A1 (priority 2017, published 2020).

Experiment [1] relates to influenza A virus A/Puerto Rico/8/34(PR8)-Luc (IAV-Luc). In kind it is cell-based.
The target in experiment [2] is RNA polymerase of influenza virus (Influenza A virus, UniProt P03428+P03431+P03433). In kind it is cell-based.
The test system of experiment [3] is IAV-Luc influenza virus (A/Puerto Rico/8/34(PR8)-Luc). In kind it is cell-based. Conditions: 10 μM, A549 cells, three treatment schemes, detection after 24 h, FIG. 7.
Experiment [4] deals with A/WSN33/H1N1 influenza virus. As to the kind of experiment: Prophylactic treatment of influenza-infected mice, lung index. Conditions: 50 mg/kg intragastric, from two days before infection and 5 days after; 40 LD50 via nasal dripping; compared with 50 mg/kg ribavirin; FIG. 4. The source says: […] Barb/C mice (6- to 8-week old) were randomly divided into 4 groups (A, B, C, D) with 5 mice in each group. All animals were marked by ear clipping and then treated with a specified preparation. Group A was a blank control group, Group B was a group in which PBS was used to resist virus infection, Group C was a group in which ribavirin was used to resist virus infection, and Group D was a group in which azithromycin was used to resist virus infection. Two days before the drugs being used to resist virus infection, the mice were treated with 50 mg/kg ribavirin and 50 mg/kg azithromycin by intragastric administration, and were infected with the influenza virus via nasal dripping with a dose of 40 LD50 (10^3 PFU/ml) on the third day (50 μl/mouse), and PBS was administered instead in the blank control group. The mice were administered consecutively for 5 days after virus infection, and the administration method was same as above. After 12 hours of fasting and water deprivation, the body weights were weighed, the lungs were incised aseptically and weighed after the mice were sacrificed by eyeball extirpating, and the lung indexes were calculated so as to evaluate the protective effect of azithromycin for mice in influenza virus infection, in which the calculation method of the lung index was a conventional calculation method known in the art.

A further experiment has as its system HA/NA-HIVLuc pseudovirus. In kind it is cell-based, influenza virus. Conditions: A549 cells, pre-incubated 8 h with concentration gradients, relative to absolute ethyl alcohol, FIG. 5.

On to erythromycin, for which, in experiment [1], the “ability to resist influenza virus infection (infection rate relative to absolute ethyl alcohol control)” value is recorded as “had the ability to resist influenza virus infection”.

Regarding roxithromycin, the “ability to resist influenza virus infection (infection rate relative to absolute ethyl alcohol control)” value in experiment [1] was “had the ability to resist influenza virus infection”.

For the substance midecamycin, in experiment [1], the “ability to resist influenza virus infection (infection rate relative to absolute ethyl alcohol control)” value is listed as “had the ability to resist influenza virus infection”.

For the substance azithromycin, the “effect on the replication of the RNA polymerase of influenza virus” value in experiment [2] was “did not affect the replication of the RNA polymerase of influenza virus”. For the same substance, in experiment [3], the “site of antiviral action (host cell versus virus particles)” value was “exerted antiviral effect mainly by acting on the virus particles”. For the same substance, in experiment [4], the “protective effect for mice in influenza virus infection (lung index)” value is listed as “better protective effect for mice in influenza virus infection as compared with ribavirin”. Moreover, the “ability to resist influenza virus infection (infection rate relative to absolute ethyl alcohol control)” value in experiment [1] is “had the ability to resist influenza virus infection”. The “efficacy against influenza virus infection compared among the macrolide antibiotics” value in experiment [1] (10 μM, A549 cells, FIG. 1) was “had the strongest efficacy”. Moreover, the “inhibitory effect against influenza virus infection in the screening of small molecule compounds” value in experiment [1] (10 μM, A549 cells, FIG. 2) was “quite strong inhibitory effect against influenza virus infection”. In addition, the “ability to resist influenza virus infection compared with oseltamivir” value in experiment [1] (same concentration (10 μM), A549 cells, FIG. 3) is “stronger than that of oseltamivir”. Further, the “inhibition of influenza virus (pseudovirus) infection at various concentrations” value in the experiment on HA/NA-HIVLuc pseudovirus is “inhibited influenza virus infection and the inhibitory effect was concentration-dependent”.
